{"source": "patent US6451787B1", "about": "“Remedies for ocular diseases” (Cephalon, Inc., priority 1998, dated 2002)", "key": {"[1]": {"test_system": "retinal gangliocyte in a retinal ischemia—reperfusion model", "assay": "Effects on the retina subjected to the ischemia—reperfusion treatment", "format": "in vivo, rat", "description": "1. Effects on the Retina Subjected to the Ischemia—Reperfusion Treatment\nIt has been reported that brain-derived neurotrophic factor (it is referred to as BDNF hereinafter) which is a neurotrophic factor has a protective effect against gangliocytic death caused by retinal ischemia (Invest. Ophthalmol. Vis. Sci. 35, 907-915 (1994)).\nThus, according to the method described in this reference, the effects of the compounds on retinal gangliocyte in a retinal ischemia—reperfusion model were studied.\nUnder anesthesia with a mixture of Ketalar and Celactal, the conjunctiva of a male Spraugue—Dawley rat (300-450 g) was dissected to expose the optic nerve and then the retina was subjected to an ischemic state by ligating the optic nerve with a suture. Sixty minutes after the ischemia, the suture was taken out to reperfuse the retina with the blood by allowing the circulation. Seven days after the reperfusion, the eye bulb was enucleated and then immobilized with paraformaldehyde, and after embedding it in paraffin, the transverse paraffin sections of the eye bulb with 3 μm of the thickness were prepared by slicing the eye bulb beginning from the point of exposure of the optic nerve with 60 μm of each interval. These sections were stained with hematoxylin—eosin and photographs were taken for the section in which the retinal part at the distance of approximately 1 mm from the optic disc to either direction, left or right, is included to measure the number of the cells contained in the layer of gangliocyte.\nHere, the compound was dissolved into polyethylene glycol 660 hydroxystearate and injected in the volume of 1 μl into the hyaloid body two day before the creation of the ischemic state."}, "[2]": {"test_system": "retinal disturbance induced by injecting kainic acid into the hyaloid body", "assay": "Effects on the retina from the eye treated with kainic acid", "format": "in vivo, rat", "conditions": "for Thickness of the inner plexiform layer: injected two days before, at the same time as and one day after kainic acid, Normal 47.5, Control 20.8; for Thickness of the inner plexiform layer / Number of the cells in the layer of gangliocyte: 7 days after; for Number of the cells in the layer of gangliocyte: Normal 64.2, Control 36.8", "experimental": "2. Effects on the Retina From the Eye Treated with Kainic Acid\nIt has been reported that when kainic acid, that is a neurotoxin, is injected into the hyaloid body, the inner plexiform layer becomes thinner because of synaptic collapse caused by cell death of amacrine cell or the number of the cells contained in the layer of gangliocyte decreases because of apoptosis happening to those cells (Neurochem. Int., 31, 251-260 (1997)).\nThen, according to the method described in this reference, the effects of the compound on the retinal disturbance induced by injecting kainic acid into the hyaloid body were studied.\nTo a male Sprague—Dawley rat (180-250 g) under anesthesia with pentobarbital, a solution of kainic acid in polyethylene glycol 660 hydroxystearate (1 mmol/L) was injected into the hyaloid bodies in both of the eyes in the amount of 5 μl under observation with a stereoscopic microscopy. […]. These sections were stained with hematoxylin—eosin and photographs were taken for the sections in which the retinal part at the distance of approximately 1 mm from the optic disc to either direction, left or right, is included to measure the thickness of the inner plexiform layer and the number of the cells contained in the layer of gangliocyte.\nThe compound was dissolved into polyethylene glycol 660 hydroxystearate and then injected into the hyaloid bodies two days before, at the same time as and one day after the kainic acid treatment in the volume of 5 μl each."}}, "data": [{"smiles": "CCSCc1ccc2c(c1)c1c3c(c4c5cc(CSCC)ccc5n5c4c1n2[C@H]1C[C@](O)(C(=O)OC)[C@]5(C)O1)CNC3=O", "note": "[Compound A]", "values": [{"measurement": "Number of the cells in the layer of gangliocyte recovered to the level of that for Normal Group (1)", "setting": "[1]; 3 μg injected, ischemia—reperfusion treatment", "value": 70.9, "unit": "%"}, {"measurement": "Number of the cells in the layer of gangliocyte", "setting": "[1]; 3 μg/eye injected into the hyaloid body two days before 60 min ischemia, 7 days after reperfusion, Normal Group 38.8, Control Group 20.5", "value": 27.5, "unit": "cells/mm"}, {"measurement": "Protective effect on neurocyte disturbance of the retina caused by the ischemia—reperfusion treatment", "setting": "[1]; conclusion in words", "value": "superior protective effect"}, {"measurement": "Number of the cells in the layer of gangliocyte recovered to the level of that for Normal group (2)", "setting": "[2]; 3 μg injected, kainic acid treatment", "value": 80.7, "unit": "%"}, {"measurement": "Thickness of the inner plexiform layer", "setting": "[2]; 3 μg/eye", "value": 28.8, "unit": "μm"}, {"measurement": "Number of the cells in the layer of gangliocyte", "setting": "[2]; 3 μg/eye, kainic acid treatment", "value": 51.8, "unit": "cells/mm"}, {"measurement": "Thickness of the inner plexiform layer", "setting": "[2]; 30 μg/eye [sic]", "value": 23.8, "unit": "μm"}, {"measurement": "Number of the cells in the layer of gangliocyte", "setting": "[2]; 30 μg/eye [sic], kainic acid treatment", "value": 42.3, "unit": "cells/mm"}, {"measurement": "Protective effect against neurocyte disturbance of the retina caused by the kainic acid treatment", "setting": "[2]; conclusion in words", "value": "superior protective effect"}]}]}
